Key:
[1] = target: Module 8 A-domain protein (Brevibacillus texasporus, UniProt Q2VQ14); test: ATP-PPi exchange assay, Module 8 A-domain; type: biochemical; details: 0.5 mM amino acid, 2 μM protein, 37° C., 15 min
Description: (§1) Cloning, overexpression, and purification of His10-tagged BT A-domain proteins. DNA fragments encoding the A-domains of the BT NRPS Modules 8, 5, 7, 4 and 2 (Bt8A, Bt5A, Bt7A, Bt4A and Bt2A) were PCR-amplified and the PCR products were inserted into the His10-tag recombinant protein expression vector pET16b (Novagen). The A-domain borders were determined as defined by (Konz, et al., 1999). The expression constructs were transformed into the E.coli BL21 -AI strain (Invitrogen). Transformants were grown in L-broth at 37° C. to an A600 of 0.6 and then induced with 1 mM IPTG (isopropyl-β-D-thiogalactopyranoside) plus 0.2% L-arabinose. The cells were allowed to grow for two additional hours at 30° C. before being harvested. Purification of the His10-tag recombinant proteins was achieved using the TALON metal affinity resins (BD Biosciences) under conditions recommended in the manual with modifications. Briefly, the E. coli cells were broken by sonication. Cell lysates were cleared by centrifugation at 25,000× g for one hour. […] Eluted proteins were dialyzed against a buffer (50 mM HEPES, pH 8.0, 100 mM sodium chloride, 10 mM magnesium chloride, and 1 mM EDTA) and then analyzed with SDS PAGE plus Coomassie Blue staining. […] Concentrations of the purified proteins were determined by using the calculated molar extinction coefficient for the A280.
(§2) ATP-PPi exchange assay. […] The charcoal/water suspension was added to a scintillation vial containing 5.0 ml of scintillation fluid, and the bound radioactivity was determined by liquid scintillation counting. […]
(§3) Since a purified recombinant A-domain of an NRPS module can selectively and efficiently activate the cognate amino acid substrate of the NRPS module in an ATP-PPi exchange assay (Konz, et al., 1999; Mootz & Marahiel, 1997), ATP-PPi exchange assays have been used to experimentally establish NRPS module specificities and novel NRPS codons. […] A-domain specificities were determined in ATP-PPi exchange and aa Km assays (see Methods and Materials), and the results are shown in FIG. 5. […]

[2] = system: Module 2 A-domain protein; test: ATP-PPi exchange assay, Module 2 A-domain; type: biochemical, Brevibacillus texasporus; details: 0.5 mM amino acid, 37° C., 15 min
Description: Cloning, overexpression, and purification of His10-tagged BT A-domain proteins. DNA fragments encoding the A-domains of the BT NRPS Modules 8, 5, 7, 4 and 2 (Bt8A, Bt5A, Bt7A, Bt4A and Bt2A) were PCR-amplified and the PCR products were inserted into the His10-tag recombinant protein expression vector pET16b (Novagen). The A-domain borders were determined as defined by (Konz, et al., 1999). The expression constructs were transformed into the E.coli BL21 -AI strain (Invitrogen). Transformants were grown in L-broth at 37° C. to an A600 of 0.6 and then induced with 1 mM IPTG (isopropyl-β-D-thiogalactopyranoside) plus 0.2% L-arabinose. The cells were allowed to grow for two additional hours at 30° C. before being harvested. Purification of the His10-tag recombinant proteins was achieved using the TALON metal affinity resins (BD Biosciences) under conditions recommended in the manual with modifications. Briefly, the E. coli cells were broken by sonication. Cell lysates were cleared by centrifugation at 25,000× g for one hour. His-tagged recombinant proteins were then incubated with the TALON resin, washed, and eluted with 500 mM imidazole. Eluted proteins were dialyzed against a buffer (50 mM HEPES, pH 8.0, 100 mM sodium chloride, 10 mM magnesium chloride, and 1 mM EDTA) and then analyzed with SDS PAGE plus Coomassie Blue staining. […] Concentrations of the purified proteins were determined by using the calculated molar extinction coefficient for the A280.
ATP-PPi exchange assay. ATP-PPi exchange assays were performed to determine the substrate specificity of an A-domain. ATP-PPi exchanges were assayed as previously described (Stachelhaus, et al., 1998) with minor modifications. The assay mixture contained 50 mM HEPES (pH 8.0), 100 mM NaCl, 10 mM MgCl2, 2 mM ATP, 0.5 mM amino acid, 0.05 mM PPi, 0.15 μCi tetrasodium [^32P]pyrophosphate. Exchange was initiated by addition of purified recombinant A-domain proteins to a total volume of 0.1 ml. The protein concentrations were 0.2 μM for Module 4 and Module 5 A-domains while 2 μM for Module 7 and Module 8 A-domains. After incubation at 37° C. for 15 min, the reaction was stopped by addition of 0.5 ml of Termination Mix (100 mM tetrasodium pyrophosphate, 3.5% HClO4, and 1.6% [w/v] activated charcoal). The charcoal was pelleted by centrifugation, washed first with 40 mM pyrophosphate plus 1.4% perchloric acid and then with water, and was re-suspended in 0.5 ml of water. The charcoal/water suspension was added to a scintillation vial containing 5.0 ml of scintillation fluid, and the bound radioactivity was determined by liquid scintillation counting. The apparent Km values were determined with substrate concentrations ranging from 0.1 to 10 mM.
Since a purified recombinant A-domain of an NRPS module can selectively and efficiently activate the cognate amino acid substrate of the NRPS module in an ATP-PPi exchange assay (Konz, et al., 1999; Mootz & Marahiel, 1997), ATP-PPi exchange assays have been used to experimentally establish NRPS module specificities and novel NRPS codons. Recombinant A-domains of Modules 8, 5, 7 ,4 and 2 of the BT NRPS were produced and purified as described in Methods and Materials. Almost completely soluble recombinant A-domain proteins were obtained. A-domain specificities were determined in ATP-PPi exchange and aa Km assays (see Methods and Materials), and the results are shown in FIG. 5. […]

[3] = target: Module 5 A-domain protein (Brevibacillus texasporus, UniProt Q2VQ15); test: ATP-PPi exchange assay, Module 5 A-domain; type: biochemical; details: 0.5 mM amino acid, 0.2 μM protein, 37° C., 15 min
Chain of Module 5 A-domain protein (Q2VQ15 entry or part of it): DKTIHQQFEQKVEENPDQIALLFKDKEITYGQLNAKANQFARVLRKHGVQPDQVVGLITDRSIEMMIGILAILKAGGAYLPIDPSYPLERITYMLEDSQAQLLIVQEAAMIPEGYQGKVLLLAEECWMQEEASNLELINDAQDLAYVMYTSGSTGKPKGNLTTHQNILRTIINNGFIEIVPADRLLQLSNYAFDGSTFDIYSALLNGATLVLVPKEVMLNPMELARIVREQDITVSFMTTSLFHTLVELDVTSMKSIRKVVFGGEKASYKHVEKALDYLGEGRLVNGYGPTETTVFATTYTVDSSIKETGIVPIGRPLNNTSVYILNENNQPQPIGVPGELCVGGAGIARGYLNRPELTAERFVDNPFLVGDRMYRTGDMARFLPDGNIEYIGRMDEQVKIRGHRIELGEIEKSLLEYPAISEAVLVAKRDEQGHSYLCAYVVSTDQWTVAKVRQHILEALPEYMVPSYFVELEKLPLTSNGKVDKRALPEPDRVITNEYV
Description: as §1, §2, §3

[4] = target: Module 4 A-domain protein (Brevibacillus texasporus, UniProt Q2VQ15); test: ATP-PPi exchange assay, Module 4 A-domain; type: biochemical; details: 0.5 mM amino acid, 0.2 μM protein, 37° C., 15 min
Chain of Module 4 A-domain protein (Q2VQ15 entry or part of it): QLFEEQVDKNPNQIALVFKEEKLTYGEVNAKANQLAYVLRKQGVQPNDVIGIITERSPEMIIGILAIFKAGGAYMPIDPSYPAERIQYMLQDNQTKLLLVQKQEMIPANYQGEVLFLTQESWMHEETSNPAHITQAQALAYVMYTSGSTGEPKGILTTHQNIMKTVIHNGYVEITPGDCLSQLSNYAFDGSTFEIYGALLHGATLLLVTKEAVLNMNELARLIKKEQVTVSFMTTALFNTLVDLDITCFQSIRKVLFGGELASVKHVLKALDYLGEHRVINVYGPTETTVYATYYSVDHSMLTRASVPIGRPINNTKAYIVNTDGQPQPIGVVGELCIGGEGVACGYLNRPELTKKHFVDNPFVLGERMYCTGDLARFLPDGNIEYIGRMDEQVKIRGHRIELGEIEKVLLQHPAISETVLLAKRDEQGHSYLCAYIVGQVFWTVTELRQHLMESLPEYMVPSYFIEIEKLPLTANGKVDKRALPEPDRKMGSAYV
Description: as §1, §2, §3

[5] = target: T1, Module 7 A-domain protein (Brevibacillus texasporus, UniProt Q2VQ15); test: ATP-PPi exchange assay, Module 7 A-domain; type: biochemical
T1 sequence (Q2VQ15 3560-4063): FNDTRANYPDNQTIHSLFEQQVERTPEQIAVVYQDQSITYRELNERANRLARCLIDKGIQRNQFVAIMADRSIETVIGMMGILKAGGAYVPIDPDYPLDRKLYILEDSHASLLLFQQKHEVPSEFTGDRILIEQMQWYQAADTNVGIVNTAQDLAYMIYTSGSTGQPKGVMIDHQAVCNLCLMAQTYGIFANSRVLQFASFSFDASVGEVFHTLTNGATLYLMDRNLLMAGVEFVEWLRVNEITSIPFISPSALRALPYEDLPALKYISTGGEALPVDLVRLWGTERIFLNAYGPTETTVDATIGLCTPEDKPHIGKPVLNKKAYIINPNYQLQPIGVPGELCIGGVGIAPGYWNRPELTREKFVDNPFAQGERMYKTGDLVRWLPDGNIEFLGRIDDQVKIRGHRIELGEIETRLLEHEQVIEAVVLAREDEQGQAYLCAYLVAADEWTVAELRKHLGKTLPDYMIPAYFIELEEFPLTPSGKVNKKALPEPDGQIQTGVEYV
Description: as §1, with “harvested.” for “harvested. Purification of the His10-tag recombinant proteins was achieved using the TALON metal affinity resins (BD Biosciences) under conditions recommended in the manual with modifications. Briefly, the E. coli cells were broken by sonication. Cell lysates were cleared by centrifugation at 25,000× g for one hour.”
as §2

Chain of Module 8 A-domain protein (Q2VQ14 entry or part of it): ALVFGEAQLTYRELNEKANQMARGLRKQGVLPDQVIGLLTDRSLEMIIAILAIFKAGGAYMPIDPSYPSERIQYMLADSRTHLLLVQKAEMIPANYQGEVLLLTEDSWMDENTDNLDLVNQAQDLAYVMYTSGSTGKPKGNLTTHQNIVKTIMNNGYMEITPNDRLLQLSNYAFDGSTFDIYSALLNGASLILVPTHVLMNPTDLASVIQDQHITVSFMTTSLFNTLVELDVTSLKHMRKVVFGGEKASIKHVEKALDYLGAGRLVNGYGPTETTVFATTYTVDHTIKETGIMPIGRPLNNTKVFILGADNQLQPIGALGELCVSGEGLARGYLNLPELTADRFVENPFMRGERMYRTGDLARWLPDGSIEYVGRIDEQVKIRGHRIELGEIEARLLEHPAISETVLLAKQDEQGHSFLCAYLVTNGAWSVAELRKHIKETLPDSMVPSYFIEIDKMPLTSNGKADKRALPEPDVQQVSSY

Row | Structure (SMILES) | relative substrate activation (highest activity defined as 100%) [1] | relative substrate activation (highest activity defined as 100%) [2] | relative substrate activation (highest activity defined as 100%) [3] | relative substrate activation (highest activity defined as 100%) [4] | substrate activation ([5]; 0.5 mM amino acid, 2 μM protein, 20 proteinogenic amino acids and L-Orn tested) | Km ([5]; substrate 0.1 to 10 mM, read-out: apparent Km)
1 | CC[C@H](C)[C@H](N)C(=O)O [L-Ile] | 4% | 19% | 23% | 100% | – | –
2 | CC(C)C[C@H](N)C(=O)O [L-Leu] | – | 98% | 17% | 7% | – | –
3 | NCCCC[C@H](N)C(=O)O [L-Lys] | 10% | – | – | – | only amino acid that activated | 1.12 mM
4 | CSCC[C@H](N)C(=O)O [L-Met] | – | 100% | – | – | – | –
5 | N[C@@H](Cc1ccccc1)C(=O)O [L-Phe] | – | 3.5% | – | – | – | –

Source: patent US7498404B2, “Compositions, methods and uses for a novel family of peptides” (priority 2004, dated 2009)
